Active and inactive are the calls of the source. The calls are words filed in the database; no cut-off is given here.

Here are results for four compounds from ChEMBL document CHEMBL4418482, “2-hydroxyarylamide derivative or pharmaceutically acceptable salt thereof, preparation method thereof, and pharmaceutical composition for preventing or treating cancer containing same as active ingredient” (2014).

The target of test [1] is Transmembrane protease serine 4 (Homo sapiens) (UniProt Q9NRS4). Nature of the test: Inhibition of TMPRSS4 serine protease domain (Val205 to Leu437 residues) (unknown origin) expressed in Escherichia coli BL21 (DE3) at 10 uM using Z-Phe-Arg7-amido-4-methylcoumarin hydrochloride substrate measured at 5 mins interval for 150 mins by fluorescence based assay relative to control.
Sequence of Transmembrane protease serine 4 (Homo sapiens) (Q9NRS4 whole entry, the tested form may be a part): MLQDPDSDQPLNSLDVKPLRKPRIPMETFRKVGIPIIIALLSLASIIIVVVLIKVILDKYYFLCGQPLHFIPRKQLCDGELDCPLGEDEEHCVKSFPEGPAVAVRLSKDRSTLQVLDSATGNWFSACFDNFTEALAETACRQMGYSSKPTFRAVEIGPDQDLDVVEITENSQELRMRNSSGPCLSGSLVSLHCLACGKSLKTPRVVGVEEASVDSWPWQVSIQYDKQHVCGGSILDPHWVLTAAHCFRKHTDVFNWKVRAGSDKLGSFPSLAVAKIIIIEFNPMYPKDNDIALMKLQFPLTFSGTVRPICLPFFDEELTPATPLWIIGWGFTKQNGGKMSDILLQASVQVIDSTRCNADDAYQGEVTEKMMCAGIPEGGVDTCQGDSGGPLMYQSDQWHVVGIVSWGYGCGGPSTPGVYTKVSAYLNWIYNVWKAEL

For test [2] the target is unchanged. Nature of the test: Inhibition of TMPRSS4 serine protease domain (Val205 to Leu437 residues) (unknown origin) expressed in Escherichia coli BL21 (DE3) at 30 uM using Z-Phe-Arg7-amido-4-methylcoumarin hydrochloride substrate measured at 5 mins interval for 150 mins by fluorescence based assay relative to control.
Test [3] shares this target. In words: Inhibition of TMPRSS4 serine protease domain (Val205 to Leu437 residues) (unknown origin) expressed in Escherichia coli BL21 (DE3) at 100 uM using Z-Phe-Arg7-amido-4-methylcoumarin hydrochloride substrate measured at 5 mins interval for 150 mins by fluorescence based assay relative to control.
Test [4] shares this target. In words: Inhibition of TMPRSS4 serine protease domain (Val205 to Leu437 residues) (unknown origin) expressed in Escherichia coli BL21 (DE3) at 1 mM using Boc-Gln-Ala-Arg-7-amido-4-methylcoumarin hydrochloride substrate measured at 5 mins intervals.

By inhibition is commonly meant the share of the control response that was lost under treatment. In the case of `O=C(Nc1ccc(C(F)(F)F)c(Br)c1)c1cc(Cl)ccc1O`, the inhibition in test [1] amounted to 30%; in test [2] it was 46%; in test [3], 98%.
In the case of `NCCc1ccc(S(=O)(=O)F)cc1`, the inhibition result in test [4] was “Active”.
For the compound `Cc1c(NC(=O)c2cc(Cl)ccc2O)cccc1C(F)(F)F`, the inhibition in test [2] was 77%.
As for `O=C(Nc1cc(C(F)(F)F)cc(C(F)(F)F)c1Cl)c1cc(-c2ccc(F)cc2F)ccc1O`, the inhibition in test [1] came to 5%; in test [2], 31%.
